Results published in patent publication US20080220101A1, “COMPOSITIONS OF EXTRACTS OF ALOE FOR ORAL ADMINISTRATION” (priority 2007, published 2008).
Marks after values point to notes of the source that are not given here. Residues, ends and D or L forms follow the SMILES beside them.

Legend:
Format in all cases: in vivo
Spodoptera littoralis = experiment: Binary choice glass-fiber disc feeding bioassay (Feeding Index); conditions: for Feeding Index: n = 15; for Feeding response in words, in combination with glucose: glucose 0.05M; for Feeding response in words, in combination with glucose / Feeding response in words, in combination with sucrose: 100, 1000 and 10,000 ppm; for Feeding response in words, in combination with sucrose: sucrose 0.05M
Procedure: All experiments were done on the final stage larvae of Spodoptera littoralis. Prior to the experiment, the insects were deprived of food for 2 hours. This has been calculated as a period when most insects would commence feeding. Thus, the food from the previous meal has started to pass into and through the gut. The initial experiment investigated whether the insects could “taste” the plant preparations or extracts and whether they stimulated or deterred feeding. […] A negative value indicates a phagostimulant and a positive value indicates an appetite suppressant. Experiments are usually repeated with between 10-20 insects and the data are analysed using the Wilcoxon matched pairs test. A series of controls were used at the start of the experiment to illustrate the difference in the response of the larvae to sucrose and glucose both tested at 0.05M. Results have been presented as means.

[1] = system: larvae of Spodoptera littoralis; experiment: Behavioral response of cannulated insects to glucose (latency, meal duration, time to second meal); conditions: glucose treated disc, solvent water
Procedure: Material and methods. Final stage larvae were removed from food and after 2 hours, they were cannulated via the oral cavity with […] of a test solution, with water used as a control. The extracts were tested at 10,000 ppm, 1,000 ppm and 100 ppm. The insects were then placed in a Petri dish with a glucose treated glass-fiber disc. The time taken for the insects to start a meal (latency), the duration of a meal (meal duration) and the time taken to take the second meal were recorded. This provides information about whether the extracts once consumed would delay feeding, whether the extracts would alter the duration of a meal once it had started, and whether the time to the second meal would be altered. […] The time to the start of a meal was extended, when compared with the water control, after cannulation with Aloe and Ginseng. Aloe acted as stimulants in the glass-fiber disc bioassays, whereas Ginseng was a potent suppressant. Thus, the Ginseng could be having a negative activity on time to feed, whereas the response to Aloe could be because of a “positive” response. The end effect is the same in that both groups caused an increase in the latency to feed. […] None of the extracts influenced the duration of the first recorded meal.

[2] = system: medial sensilla of Spodoptera littoralis larvae; experiment: Electrophysiology: neural response of the medial sensilla after cannulation; conditions: for Impulses per second from the medial styloconic sensilla, stimulus C: stimulus KCl (0.05M); for Impulses per second from the medial styloconic sensilla, stimulus P: stimulus amino acid mixture; for Impulses per second from the medial styloconic sensilla, stimulus G: stimulus glucose (0.05M); for Impulses per second from the medial styloconic sensilla, stimulus S: stimulus sucrose (0.05M)
From the text: Insects use sensilla on their mouthparts to taste their food. These sensilla contain neurones that respond to compounds in their food. An electrophysiological bioassay has been developed to record the neural impulses from the four neurones in each sensilla. […] Previous experiments have shown that the responsiveness of the insects can be influenced by the diet an insect has been reared on and previous exposure to a compound. The physiological condition of the insect can also influence the responsiveness of these neurones. In these experiments, we […] classify the neurones down to specific neurones but this requires some further experiments not undertaken in this study. […] Each larva was tested with KCl (C=0.05M) as a control, sucrose (S=0.05M), glucose (G=0.05M) and amino acid mix (P=0.05M). A set of experiments were undertaken on a control non-cannulated group of insects. […] Prior to the experiment, the insects had been standardized as in the behavioral experiments.

[3] = in combination with glucose 0.05M, extract 100 ppm
[4] = in combination with glucose 0.05M, extract 1,000 ppm
[5] = in combination with glucose 0.05M, extract 10,000 ppm
[6] = in combination with sucrose 0.05M, extract 100 ppm
[7] = in combination with sucrose 0.05M, extract 1,000 ppm
[8] = in combination with sucrose 0.05M, extract 10,000 ppm
[9] = 30 min after cannulation at 1000 ppm
[10] = 1 h after cannulation at 1000 ppm

SMILES | Feeding response in words, in combination with glucose (Spodoptera littoralis) | Feeding Index (Spodoptera littoralis; [3]) | Feeding Index (Spodoptera littoralis; [4]) | Feeding Index (Spodoptera littoralis; [5]) [%] | Feeding Index (Spodoptera littoralis; [6]) [%] | Feeding Index (Spodoptera littoralis; [7]) [%] | Feeding Index (Spodoptera littoralis; [8]) [%] | Feeding response in words, in combination with sucrose (Spodoptera littoralis) | Latency ([1]; concentration 0.1k (100 ppm)) [min] | Meal duration ([1]; concentration 0.1k (100 ppm)) [min] | Time to 2nd meal ([1]; concentration 0.1k (100 ppm)) [min] | Latency ([1]; concentration 1k (1,000 ppm)) [min] | Meal duration ([1]; concentration 1k (1,000 ppm)) [min] | Time to 2nd meal ([1]; concentration 1k (1,000 ppm)) [min] | Latency ([1]; concentration 10k (10,000 ppm)) [min] | Meal duration ([1]; concentration 10k (10,000 ppm)) [min] | Time to 2nd meal ([1]; concentration 10k (10,000 ppm)) [min] | Impulses per second from the medial styloconic sensilla, stimulus C [2, 9] [impulses per second] | Impulses per second from the medial styloconic sensilla, stimulus P [2, 9] [impulses per second] | Impulses per second from the medial styloconic sensilla, stimulus G [2, 9] [impulses per second] | further results
OC[C@H]1O[C@@](CO)(O[C@H]2O[C@H](CO)[C@@H](O)[C@H](O)[C@H]2O)[C@@H](O)[C@@H]1O [Sucrose] |  |  |  |  |  |  |  |  |  |  |  |  |  |  |  |  |  |  |  |  | Feeding Index (Spodoptera littoralis; control disc sucrose 0.05M versus treatment disc sucrose 0.05M, 18 hours): 10.7%; Feeding Index (Spodoptera littoralis; control disc sucrose 0.05M versus untreated treatment disc, 18 hours): 46.3* %; Phagostimulant potency in words (Spodoptera littoralis; sucrose versus glucose, both 0.05M): more potent phagostimulant to S. littoralis than glucose
O=C1NS(=O)(=O)c2ccccc21 [Saccharin] | stimulated feeding at lower concentrations | −24* % | −25* % | −18 | −16 | −5 | 5 | not significant | 24 | 16 | 11 | 24 | 14 | 18 | 25 | 14 | 18 | 9 | 29 | 45 | Impulses per second from the medial styloconic sensilla, stimulus S [2, 9]: 65 impulses per second; Impulses per second from the medial styloconic sensilla, stimulus C [2, 10]: 15 impulses per second; Impulses per second from the medial styloconic sensilla, stimulus P [2, 10]: 47 impulses per second; Impulses per second from the medial styloconic sensilla, stimulus G [2, 10]: 28 impulses per second; Impulses per second from the medial styloconic sensilla, stimulus S [2, 10]: 48 impulses per second
COC(=O)[C@H](Cc1ccccc1)NC(=O)[C@@H](N)CC(=O)O [Aspartame] (H-Asp-Phe-OMe) | stimulated feeding at lower concentrations | −25* % | −31* % | −24 | −15 | 14 | 15 | not significant | 21 | 17 | 15 | 24 | 12 | 15 | 20 | 12 | 17 | 10 | 24 | 45 | Impulses per second from the medial styloconic sensilla, stimulus S [2, 9]: 57 impulses per second; Impulses per second from the medial styloconic sensilla, stimulus C [2, 10]: 12 impulses per second; Impulses per second from the medial styloconic sensilla, stimulus P [2, 10]: 24 impulses per second; Impulses per second from the medial styloconic sensilla, stimulus G [2, 10]: 25 impulses per second; Impulses per second from the medial styloconic sensilla, stimulus S [2, 10]: 48 impulses per second
